Consider twelve molecules from ChEMBL document CHEMBL1126498, “Heterocyclic inhibitors of human leukocyte elastase: 3-Hydroxypyridazopyrimidine, 3-hydroxypyridopyrimidine and 3-hydroxyquinazoline-2,4-1H,3H0dione derivatives” (Bioorg Med Chem Lett, 1993).

The source made the active and inactive calls. No cut-off for these calls is given here.

The first test has as its target T1, Neutrophil elastase (Homo sapiens) (UniProt P08246).
T1 sequence (whole entry): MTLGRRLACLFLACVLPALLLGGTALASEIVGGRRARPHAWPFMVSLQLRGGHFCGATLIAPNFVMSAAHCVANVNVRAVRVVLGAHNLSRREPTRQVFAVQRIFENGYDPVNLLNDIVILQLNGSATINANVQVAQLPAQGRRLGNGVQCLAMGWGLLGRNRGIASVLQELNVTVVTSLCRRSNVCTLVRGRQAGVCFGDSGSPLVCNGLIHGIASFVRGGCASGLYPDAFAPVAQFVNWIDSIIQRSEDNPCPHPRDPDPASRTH
Briefly: The bimolecular rate constant Kobs/[I] to inhibit human leukocyte elastase (HLE) was determined.
`CCCCS(=O)(=O)On1c(=O)[nH]c2cccnc2c1=O` returned a K obs / 1 of 64 M⁻¹ s⁻¹. Still for that read-out and setting: the result for `CCCOP(=O)(OCCC)On1c(=O)[nH]c2ccccc2c1=O` reads 3160 M⁻¹ s⁻¹; that for `CCCCS(=O)(=O)On1c(=O)[nH]c2nccnc2c1=O`, 20 M⁻¹ s⁻¹. Same read-out and setting: the result for `CC(C)CS(=O)(=O)On1c(=O)[nH]c2ccccc2c1=O` reads 170 M⁻¹ s⁻¹; that for `CCCCOP(=O)(OCCCC)On1c(=O)[nH]c2ccccc2c1=O`, 3870 M⁻¹ s⁻¹; that for `CCCCS(=O)(=O)On1c(=O)[nH]c2ccncc2c1=O`, 58 M⁻¹ s⁻¹. The same measure, in the same setting: in the case of `CCCCCS(=O)(=O)On1c(=O)[nH]c2ccccc2c1=O` it was 40 M⁻¹ s⁻¹. `CCCCS(=O)(=O)On1c(=O)[nH]c2ccccc2c1=O` returned a K obs / 1 of 180 M⁻¹ s⁻¹.

In the next test the target is T1, Neutrophil elastase (Homo sapiens). Put plainly: The bimolecular rate constant Kobs/[I] to inhibit human leukocyte elastase (HLE) was determined; IA denotes inactive.
In the case of `CS(=O)(=O)On1c(=O)[nH]c2ccccc2c1=O`, the “K obs / 1” value is “inactive”. As to `O=c1[nH]c2nccnc2c(=O)n1OS(=O)(=O)c1ccccc1`, the “K obs / 1” value was “inactive”. The same measure, in the same setting: the result for `CS(=O)(=O)On1c(=O)[nH]c2nccnc2c1=O` reads “inactive”; that for `O=c1[nH]c2ccccc2c(=O)n1OS(=O)(=O)c1ccccc1`, “inactive”.
